Measured values: paper PMC6199744, “Development of Chemical Proteomics for the Folateome and Analysis of the Kinetoplastid Folateome” (ACS Infectious Diseases, 2018)

Test system: L. major lysate proteins
Assay: Multitargeted bead mixture chemoproteomics, single concentration competition, proteome-wide
Assay type: binding
Conditions: for fold change: vehicle control = 1

In the case of `NCCCNc1ccc(C(=O)NC(CCC(=O)O)C(=O)O)cc1` (stereo not drawn) [compound 7], the “fold change vs vehicle control” value (protein LMJF.28.0110 PROTEASOME BETA 3 SUBUNIT, PUTATIVE) is reported as 0.99, the “fold change vs vehicle control” value (protein LMJF.28.0490 PROPIONYL-COA C[…] CHAIN, PUTATIVE) is reported as 1.21 and the fold change (protein LMJF.28.0710 HYPOTHETICAL PROTEIN, CONSERVED (SNARE associated Golgi protein, putative)) is reported as 0.86. The “fold change vs vehicle control” value (protein LMJF.28.0930 HYPOTHETICAL PROTEIN, CONSERVED) was 0.98, the “fold change vs vehicle control” value (protein LMJF.28.0960 40S RIBOSOMAL PROTEIN S14) was 0.99 and the “fold change vs vehicle control” value (protein LMJF.28.1530 ATP DEPENDENT DEAD-BOX HELICASE, PUTATIVE) was 0.89. For the same molecule, the “fold change relative to vehicle control” value (protein LMJF.28.1730, PROTEASOME REGULATORY NON-ATP-ASE SUBUNIT 2, PUTATIVE) was 1.27, the “fold change relative to vehicle control” value (protein LMJF.28.2310, EUKARYOTIC TRANSLATION INITIATION FACTOR, PUTATIVE) was 0.98 and the “fold change vs vehicle control” value (protein LMJF.28.2430 VACUOLAR ATP SYNTHASE SUBUNIT B, PUTATIVE) was 1.03. The “fold change relative to vehicle control” value (protein LMJF.28.2770, HEAT-SHOCK PROTEIN HSP70, PUTATIVE) was 1.05, the fold change (protein LMJF.28.2910 GLUTAMATE DEHYDROGENASE, PUTATIVE) was 0.88 and the “fold change vs vehicle control” value (protein LMJF.29.0120 PROTEASOME REGULATORY NON-ATPASE SUBUNIT, PUTATIVE) was 1.1. For the same molecule, the fold change (protein LMJF.29.0620 ATP-BINDING CASSETTE PROTEIN SUBFAMILY A, MEMBER 10, PUTATIVE) was 0.79, the “fold change vs vehicle control” value (protein LMJF.29.0760 […] BI[…], PUTATIVE,HEAT SHOCK PROTEIN 90, PUTATIVE) was 1.16 and the “fold change relative to vehicle control” value (protein LMJF.29.0850, HIGH MOBILITY GROUP PROTEIN HOMOLOG TDP-1, PUTATIVE) was 0.78. The “fold change vs vehicle control” value (protein LMJF.29.0940 HY[…], CONSERVED) was 1.11, the “fold change vs vehicle control” value (protein LMJF.29.1160 TRYPAREDOXIN) was 0.93 and the “fold change vs vehicle control” value (protein LMJF.29.1240 HY[…], UNKNOWN FUNCTION) was 1.04. The “fold change vs vehicle control” value (protein LMJF.29.1270 100 kDa heat shock protein (Hsp100)) was 1.12, the “fold change vs vehicle control” value (protein LMJF.29.1310 CARNITINE/CHOLINE ACETYLTRANSFERASE, PUTATIVE) was 1 and the “fold change relative to vehicle control” value (protein LMJF.29.1760, PARAFLAGELLAR ROD PROTEIN 1D, PUTATIVE) was 1.2. The “fold change vs vehicle control” value (protein LMJF.29.1780 DIPHTHAMIDE SYNTHESIS PROTEIN, PUTATIVE) was 0.94, the fold change (protein LMJF.29.2200 GTP-BINDING PROTEIN, PUTATIVE (dynamin-1-like protein)) was 0.93 and the fold change (protein LMJF.29.2310 ENOYL-COA HYDRATASE/ISOMERASE-LIKE PROTEIN) was 0.93. For the same molecule, the “fold change vs vehicle control” value (protein LMJF.29.2360 ASPARTYL AMINOPEPTIDASE, PUTATIVE,METALLO-PEPTIDASE, CLAN MH, FAMILY M20) was 1.05, the fold change (protein LMJF.29.2860 40S RIBOSOMAL PROTEIN S19-LIKE PROTEIN) was 1.02 and the fold change (protein LMJF.30.0580 HYPOTHETICAL PROTEIN, CONSERVED (AMP-binding enzyme, putative)) was 0.85. The fold change (protein LMJF.30.0850 SURFACE PROTEIN AMASTIN, PUTATIVE) was 0.92, the “fold change vs vehicle control” value (protein LMJF.30.1250 PYRIDOXAL KINASE, PUTATIVE) was 1.11 and the “fold change vs vehicle control” value (protein LMJF.30.2580 RETICULON DOMAIN PROTEIN, 22 KDA POTENTIALLY AGGRAVATING PROTEIN (PAPLE22)) was 0.95. The “fold change relative to vehicle control” value (protein LMJF.30.3090, HY[…], CONSERVED (RNA-binding protein 42, putative)) was 1.06, the “fold change vs vehicle control” value (protein LMJF.30.3240 GLUTAMYL-TRNA SYNTHETASE, PUTATIVE) was 0.99 and the fold change (protein LMJF.30.3430 HYPOTHETICAL PROTEIN, CONSERVED (protein mkt1, putative)) was 1. The fold change (protein LMJF.30.3520 S-ADENOSYLMETHIONINE SYNTHETASE) was 0.93, the fold change (protein LMJF.30.3570 ZINC FINGER-DOMAIN PROTEIN, PUTATIVE) was 0.92 and the “fold change relative to vehicle control” value (protein LMJF.31.0080, HY[…], CONSERVED) was 1.21. The “fold change vs vehicle control” value (protein LMJF.31.0340 AMINO ACID PERMEASE, PUTATIVE) was 1.04, the fold change (protein LMJF.31.1130 N-ACYL-L-AMINO ACID AMIDOHYDROLASE, PUTATIVE) was 1.03 and the “fold change vs vehicle control” value (protein LMJF.31.1640 THIOLASE PROTEIN-LIKE PROTEIN) was 0.99. For the same molecule, the “fold change relative to vehicle control” value (protein LMJF.31.2150, PROSTAGLANDIN F2-ALPHA SYNTHASE/D-ARABINOSE DEHYDROGENASE) was 2.99, the “fold change vs vehicle control” value (protein LMJF.31.2250 3,2-TRANS-ENOYL-COA ISOMERASE, MIT[…], PUTATIVE) was 1.97 and the “fold change vs vehicle control” value (protein LMJF.32.0750 RNA BINDING PROTEIN, PUTATIVE) was 0.99. For the same molecule, the “fold change vs vehicle control” value (protein LMJF.32.1060 DYNEIN, PUTATIVE) was 1.08, the “fold change relative to vehicle control” value (protein LMJF.32.1820, IRON […], PUTATIVE) was 1.09 and the “fold change relative to vehicle control” value (protein LMJF.32.2320, C-14 STEROL REDUCTASE, PUTATIVE) was 1.65. The “fold change vs vehicle control” value (protein LMJF.32.3870 MYOSIN XXI) was 0.92, the “fold change relative to vehicle control” value (protein LMJF.33.0240, THIOL-DEPENDENT REDUCTASE 1) was 1.07 and the fold change (protein LMJF.33.0280 HYPOTHETICAL PROTEIN, CONSERVED) was 0.96. For the same molecule, the “fold change relative to vehicle control” value (protein LMJF.33.0890, HYPOTHETICAL PROTEIN, CONSERVED) was 0.93, the “fold change vs vehicle control” value (protein LMJF.33.1070 HY[…], UNKNOWN FUNCTION) was 1.09 and the “fold change vs vehicle control” value (protein LMJF.33.1330 CYSTEINE CONJUGATE BETA-LYASE, AMINOTRANSFERASE- LIKE PROTEIN) was 0.98. The fold change (protein LMJF.33.1590 HYPOTHETICAL PROTEIN, CONSERVED (3-ketoacyl-CoA reductase, putative)) was 1, the “fold change relative to vehicle control” value (protein LMJF.33.1860, ATP-BINDING CASSETTE PROTEIN SUBFAMILY D, MEMBER 3, PUTATIVE) was 1.06 and the “fold change relative to vehicle control” value (protein LMJF.33.2340, SUCCINYL-COA:3-KETOACID-COENZYME A TRANSFERASE, MIT[…], PUTATIVE) was 1.19. For the same molecule, the “fold change relative to vehicle control” value (protein LMJF.33.2440, HY[…], CONSERVED) was 1.14, the “fold change relative to vehicle control” value (protein LMJF.33.2540, CARBOXYPEPTIDASE, PUTATIVE,METALLO-PEPTIDASE, CLAN MA(E), FAMILY M32) was 1.06 and the fold change (protein LMJF.33.3150 40S RIBOSOMAL PROTEIN S13, PUTATIVE) was 0.96. The “fold change relative to vehicle control” value (protein LMJF.34.0140, MALATE DEHYDROGENASE) was 6.88, the “fold change vs vehicle control” value (protein LMJF.34.0440 RIBOSOMAL PROTEIN S25) was 1.13 and the “fold change relative to vehicle control” value (protein LMJF.34.2580, HY[…], CONSERVED (ALBA-domain protein 3)) was 1.04. For the same molecule, the “fold change relative to vehicle control” value (protein LMJF.34.3250, PUTATIVE PYRUVATE/INDOLE-PYRUVATE CARBOXYLASE, PUTATIVE) was 1.08, the fold change (protein LMJF.34.4370 20S PROTEASOME BETA 7 SUBUNIT, (PUTATIVE)) was 0.97 and the “fold change vs vehicle control” value (protein LMJF.34.4620 HYPOTHETICAL PROTEIN, CONSERVED) was 1.3. For the same molecule, the fold change (protein LMJF.35.0070 PROHIBITIN, PUTATIVE) was 1.03, the “fold change vs vehicle control” value (protein LMJF.35.0360 ENOYL-COA HYDRATASE/ISOMERASE FAMILY PROTEIN, CONSERVED) was 1.09 and the fold change (protein LMJF.35.0370 ATP-DEPENDENT DEAD-BOX RNA HELICASE, PUTATIVE) was 0.98.
